Assay results from patent US20260274833A1 (NiKang Therapeutics, Inc., priority 2022, published 2026).

Molecular target: T1, CDK2 (Homo sapiens, UniProt P24941)
T1 construct: endogenous in cells; host or cells: OVCAR3 cells
Assay: Phospho-RB measurement in OVCAR3 cells (HTRF phospho-RB cellular kit)
Type: cell-based
Details: inhibition of RB phosphorylation at S807/811 (HTRF, TR-FRET ratio 665/620), 24 h compound treatment, 0.3 to 10,000 nM
Method in brief: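 IC50 came from a four-parameter logistic fit of the DMSO-normalized TR-FRET ratio (665/620 nm). That ratio reflects RB phosphorylation at S807/811, read with an HTRF antibody pair 4 h after adding lysate at room temperature.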

Row | SMILES | IC50
1 | CN(C)CCN(C)S(=O)(=O)N1CCC(Nc2nccc(-c3sc(C(C)(C)C)nc3-c3cccc(NS(=O)(=O)N(C)C)c3F)n2)CC1 [Example 135, 4-((4-(2-(tert-butyl)-4-(3-((N,N-dimethyl-sulfamoyl)amino)-2-fluoro-phenyl)thiazol-5-yl)pyrimidin-2-yl)amino)-N-(2-(dimethyl-amino)ethyl)-N-methylpiperidine-1-sulfonamide] | 474 nM
2 | CC(C)(C)c1nc(-c2cccc(NS(=O)(=O)N3CCOc4ccccc43)c2F)c(-c2ccnc(NC3CCN(S(=O)(=O)N4CCNCC4)CC3)n2)s1 [Example 136, N-(3-(2-(tert-butyl)-5-(2-((1-(piperazin-1-ylsulfonyl)piperidin-4-yl)amino)-pyrimidin-4-yl)thiazol-4-yl)-2-fluorophenyl)-2,3-dihydro-4H-benzo[b][1,4] oxazine-4-sulfonamide] | 1490 nM
3 | CN1CCN(S(=O)(=O)Nc2cccc(-c3nc(C(C)(C)C)sc3-c3ccnc(NC4CCN(S(C)(=O)=O)CC4)n3)c2F)Cc2ccccc21 [Example 137, N-(3-(2-(tert-butyl)-5-(2-((1-(methylsulfonyl)-piperidin-4-yl)amino)-pyrimidin-4-yl)thiazol-4-yl)-2-fluoro-phenyl)-1-methyl-1,2,3,5-tetrahydro-4H-benzo[e][1,4] diazepine-4-sulfonamide] | 286 nM
4 | CN1CCN(S(=O)(=O)N2CCC(Nc3nccc(-c4sc(C(C)(C)C)nc4-c4cccc(NS(=O)(=O)N5CCNc6ccccc6C5)c4F)n3)CC2)CC1 [Example 138, N-(3-(2-(tert-butyl)-5-(2-((1-((4-methylpiperazin-1-yl)sulfonyl)piperidin-4-yl)amino)pyrimidin-4-yl)thiazol-4-yl)-2~fluorophenyl)-1,2,3,5-tetrahydro-4H-benzo[e][1,4] diazepine-4-sulfonamide] | 396 nM
5 | CN(C)CCN(C)S(=O)(=O)N1CCC(Nc2nccc(-c3sc(C(C)(C)C)nc3-c3cccc(NS(=O)(=O)N4CCNc5ccccc5C4)c3F)n2)CC1 [Example 139, N-(3-(2-(tert-butyl)-5-(2-((1-(N-(2-(dimethyl-amino)ethyl)-N-methyl-sulfamoyl)piperidin-4-yl)amino)-pyrimidin-4-yl)thiazol-4-yl)-2-fluoro-phenyl)-1,2,3,5-tetrahydro-4H-benzo[e][1,4] diazepine-4-sulfonamide] | 291 nM
6 | C[C@@H]1Cc2ccccc2N1S(=O)(=O)Nc1cccc(-c2nc(C(C)(C)C)sc2-c2ccnc(NC3CCN(S(=O)(=O)N4CCNCC4)CC3)n2)c1F [Example 140, (R)-N-(3-(2-(tert-butyl)-5-(2-((1-(piperazin-1-ylsulfonyl)piperidin-4-yl)amino)pyrimidin-4-yl)thiazol-4-yl)-2-fluorophenyl)-2-methyl-indoline-1-sulfonamide] | 622 nM
7 | CC(C)(C)c1nc(-c2cccc(NS(=O)(=O)N3CCc4ncccc43)c2F)c(-c2ccnc(NC3CCN(S(C)(=O)=O)CC3)n2)s1 [Example 141, N-(3-(2-(tert-butyl)-5-(2-((1-(methylsulfonyl)-piperidin-4-yl)amino)-pyrimidin-4-yl)thiazol-4-yl)-2-fluoro-phenyl)-2,3-dihydro-1H-pyrrolo [3,2-b]-pyridine-1-sulfonamide] | 291 nM
8 | CN(C)Cc1ccc2c(c1)N(S(=O)(=O)Nc1cccc(-c3nc(C(C)(C)C)sc3-c3ccnc(NC4CCN(S(C)(=O)=O)CC4)n3)c1F)CC2 [Example 142, N-(3-(2-(tert-butyl)-5-(2-((1-(methylsulfonyl)-piperidin-4-yl)amino)-pyrimidin-4-yl)thiazol-4-yl)-2-fluoro-phenyl)-6-((dimethylamino)-methyl)-indoline-1-sulfonamide] | 341 nM
9 | COc1cccc2c1CN(S(=O)(=O)Nc1cccc(-c3nc(C(C)(C)C)sc3-c3ccnc(NC4CCN(S(=O)(=O)N5CCNCC5)CC4)n3)c1F)C2 [Example 143, N-(3-(2-(tert-butyl)-S-(2-((1-(piperazin-1-ylsulfonyl)piperidin-4-yl)amino)-pyrimidin-4-yl)thiazol-4-yl)-2-fluoro-phenyl)-4-methoxy-isoindoline-2-sulfonamide] | 136 nM
10 | CC(C)(C)c1nc(-c2cccc(NS(=O)(=O)N3Cc4ccc(F)cc4C3)c2F)c(-c2ccnc(NC3CCN(S(=O)(=O)N4CCNCC4)CC3)n2)s1 [Example 144, N-(3-(2-(tert-butyl)-5-(2-((1-(piperazin-1-ylsulfonyl)piperidin-4-yl)amino)-pyrimidin-4-yl)thiazol-4-yl)-2-fluoro-phenyl)-5-fluoro-isoindoline-2-sulfonamide] | 227 nM
11 | CNC(=O)c1cccc2c1CN(S(=O)(=O)Nc1cccc(-c3nc(C(C)(C)C)sc3-c3ccnc(NC4CCN(S(C)(=O)=O)CC4)n3)c1F)C2 [Example 145, 2-(N-(3-(2-(tert-butyl)-5-(2-((1-(methyl-sulfonyl)piperidin-4-yl)amino)pyrimidin-4-yl)thiazol-4-yl)-2-fluorophenyl)-sulfamoyl)-N-methyliso-indoline-4-carboxamide] | 389 nM
12 | CNS(=O)(=O)Nc1cccc(-c2nc(C(C)(C)C)sc2-c2ccnc(NC3CCN(S(=O)(=O)N4CCNCC4)CC3)n2)c1F [Example 146, N-(3-(2-(tert-butyl)-5-(2-((1-(piperazin-1-ylsulfonyl)piperidin-4-yl)amino)-pyrimidin-4-yl)thiazol-4-yl)-2-fluoro-phenyl)-methylamine-sulfonamide] | 3010 nM
13 | C[C@H]1Cc2ccccc2N1S(=O)(=O)Nc1cccc(-c2nc(C(C)(C)C)sc2-c2ccnc(NC3CCN(S(=O)(=O)N4CCNCC4)CC3)n2)c1F [Example 147, (S)-N-(3-(2-(tert-butyl)-5-(2-((1-(piperazin-1-ylsulfonyl)piperidin-4-yl)amino)pyrimidin-4-yl)thiazol-4-yl)-2-fluorophenyl)-2-methylindoline-1-sulfonamide] | 458 nM
14 | CC1c2ccccc2CN1S(=O)(=O)Nc1cccc(-c2nc(C(C)(C)C)sc2-c2ccnc(NC3CCN(S(=O)(=O)N4CCNCC4)CC3)n2)c1F (centres unmarked) [Example 148, N-(3-(2-(tert-butyl)-5-(2-((1-(piperazin-1-ylsulfonyl)piperidin-4-yl)amino)-pyrimidin-4-yl)thiazol-4-yl)-2-fluoro-phenyl)-1-methylisoindoline-2-sulfonamide] | 210 nM
15 | CC(C)(C)c1nc(-c2cccc(NS(=O)(=O)N3Cc4ccc(C#N)cc4C3)c2F)c(-c2ccnc(NC3CCN(S(=O)(=O)N4CCNCC4)CC3)n2)s1 [Example 149, N-(3-(2-(tert-butyl)-5-(2-((1-(piperazin-1-ylsulfonyl)piperidin-4-yl)amino)-pyrimidin-4-yl)thiazol-4-yl)-2-fluoro-phenyl)-5-cyanoisoindoline-2-sulfonamide] | 488 nM
16 | CN(C)CCOc1cccc2c1CN(S(=O)(=O)Nc1cccc(-c3nc(C(C)(C)C)sc3-c3ccnc(NC4CCN(S(C)(=O)=O)CC4)n3)c1F)C2 [Example 150, N-(3-(2-(tert-butyl)-5-(2-((1-(methylsulfonyl)piperidin-4-yl)amino)-pyrimidin-4-yl)thiazol-4-yl)-2-fluoro-phenyl)-4-(2-(dimethylamino)-ethoxy)-isoindoline-2-sulfonamide] | 1840 nM
17 | CNC(=O)c1ccc2c(c1)N(S(=O)(=O)Nc1cccc(-c3nc(C(C)(C)C)sc3-c3ccnc(NC4CCN(S(C)(=O)=O)CC4)n3)c1F)CC2 [Example 151, 1-(N-(3-(2-(tert-butyl)-5-(2-((1-(methyl-sulfonyl)piperidin-4-yl)amino)pyrimidin-4-yl)thiazol-4-yl)-2-fluorophenyl)-sulfamoyl)-N-methylindoline-6-carboxamide] | 355 nM
